From the METLIN SMRT retention time set (Domingo-Almenara et al. 2019)

Test: gradient 5% acetonitrile 3 min, to 50% in 2 min, to 85% in 15 min, held 3 min, 100 µL/min
Settings: column: Zorbax Extend-C18 2.1 x 50 mm; eluents: water / acetonitrile, 0.1% formic acid
Method in brief: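 Values are retention times taken from adduct peaks that software picked and an analyst inspected. The pure standards were run as mixtures of ~100 molecules on HPLC linked to a quadrupole time-of-flight mass spectrometer, in positive and negative ionization mode. A Zorbax Extend-C18 column (2.1 × 50 mm, 1.8 μm) was used at 100 μL/min with water and acetonitrile, each including 0.1% formic acid.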

RP-LC retention time	SMILES
839 s	O=C(c1ccc[nH]1)N1CCN(C(=O)c2nnn3c2COC(c2ccc(Cl)cc2)C3)CC1 (centres undefined)
1180 s	CC(C)c1csc(-c2csc(S(=O)(=O)NC3CCCCC3)c2)n1
694 s	CCOC(=O)c1c(C)[nH]c(C(=O)N2CCC(CC(=O)NCc3ccc(OC)cc3)CC2)c1C
1030 s	Cc1ccc(S(=O)(=O)c2cnc(N3CCN(C(=O)OC(C)(C)C)CC3)nc2N)cc1
869 s	O=C(Cc1csc2nc(-c3cccc(Br)c3)cn12)NCc1ccc2c(c1)OCO2
664 s	Cn1c(SCC(=O)N2CCCCC2)nnc1-c1ccc2c(c1)OCCCO2
750 s	O=C(NCc1cccnc1)C1CCN(Cc2cc3ccccc3n2Cc2cccc(Cl)c2)CC1
762 s	COc1ccc(NC(=O)CN2CCc3[nH]c4c(C)c(Cl)ccc4c(=O)c3C2)cc1Cl
962 s	CC(C)C(NC(=O)C1CCCN(S(=O)(=O)Cc2ccccc2)C1)C(C)C (centres undefined)
952 s	COc1ccc(OC)c(S(=O)(=O)N2CCCC(C(=O)Nc3cccc(C)c3)C2)c1 (centres undefined)
797 s	O=C(NCc1ccc(Cl)cc1)C1CCN(C(=O)c2cc3ccsc3[nH]2)CC1
1220 s	O=C(Nc1ccccc1F)c1c(O)c2cccnc2n(-c2ccc(F)cc2)c1=O
763 s	Cc1ncoc1C(=O)N1CCC(c2noc(-c3ccccc3)n2)C1 (centres undefined)
953 s	Cc1ccc(NC(=O)C2CCN(S(=O)(=O)c3ccc4c(c3)sc(=O)n4C(C)C)CC2)cc1C
778 s	O=C(Nc1cnc(N2CCCCCC2)nc1)C1CCC1
940 s	O=C(COC(=O)C(c1ccccc1)c1ccccc1)Nc1ccc2c(c1)OCO2
813 s	CN(CC1(C)CCOCC1)C(=O)c1c(F)cccc1Cl
849 s	Cn1c(=O)n(C)c2cc(Sc3ccccc3)c(NC(=O)C3CC3)cc21
763 s	CC(=O)N1CCc2cc(N3CC(C(=O)NCc4ccccc4F)CC3=O)ccc21 (centres undefined)
886 s	Cc1cccc(Sc2nccnc2N2CCC(C(=O)NC3CC3)CC2)c1
1080 s	CCOC(=O)C1CCN(c2ncnc3c2cnn3-c2cccc(C)c2)CC1
870 s	CC(C)Oc1ccc(-c2nc3ncccn3c2NC2CCCCC2)cc1
977 s	CC1CCCN(S(=O)(=O)c2ccc(-c3nnc(C(C)C)o3)o2)C1 (centres undefined)

RP-LC retention time	SMILES
679 s	CCN1CCC(N(Cc2cccs2)C(=O)Nc2cccc(Cl)c2)CC1
699 s	O=C(NCc1csc(C2CCCN(C(=O)c3ccc(F)cc3F)C2)n1)C1CCC1 (centres undefined)
874 s	O=C(Nc1cc(F)ccc1F)C1CCN(c2ccc(=O)n(-c3ccc(F)cc3)n2)CC1
820 s	COc1ccc(-c2nnc(COc3ccc(NC(=O)c4cccnc4Cl)cc3)o2)cc1
669 s	O=C1CCC2(CCN1)CCN(C(=O)C1CCCCC1)CC2
717 s	CC1CCN(C(=O)C2CCc3sc(C(=O)N(C)C)cc3C2)CC1 (centres undefined)
698 s	COc1ccc(Cl)cc1S(=O)(=O)NC1CCCN(c2ccc(=O)[nH]n2)C1 (centres undefined)
664 s	Cc1ccc([N+](=O)[O-])cc1S(=O)(=O)Nc1ccc(-c2cn3ccccc3n2)cc1
766 s	CCOc1ccc(NC(=O)c2oc3ccc(C)cc3c2C)c2cccnc12
1300 s	Fc1ccc(-c2nc(-c3ccc(-n4cccn4)nc3)no2)c(Cl)c1
781 s	CCN1c2cc(F)ccc2C(=O)NC12CCN(C(=O)c1ccc(OC)cc1OC)CC2
953 s	COc1ccc(-c2nc3cnccn3c2Nc2cccc(C)c2C)cc1
661 s	CC(C)CC(=O)NCCc1nc2cccnc2n1-c1ccccc1
740 s	COc1ccc(C2=NN(S(C)(=O)=O)C(c3ccc4nccnc4c3)C2)c(F)c1 (centres undefined)
1130 s	Cc1ccsc1C(=O)Nc1cnc(-c2cccc(Cl)c2)nc1
774 s	Cc1oc(-c2ccc(NC(=O)C3CCCO3)cc2)nc1Cn1cccn1 (centres undefined)
768 s	COc1cccc(-c2cc(NCc3ccc4c(c3)OCO4)nc(N)n2)c1
941 s	Cc1cc(-c2nnc(-c3ccco3)o2)c(C)n1CC(=O)Nc1ccc(F)c(Cl)c1
940 s	CCOc1ccc(CC(=O)NC2(c3nc(CC)no3)CCCCC2)cc1
722 s	Cc1ccc(NS(=O)(=O)c2cc3n(c2)CCN(C)C3=O)cc1C
802 s	CC1=C(c2ccc(F)cc2)S(=O)(=O)N=C1N1CCC(C(=O)NCCc2ccco2)CC1
917 s	CS(=O)(=O)CCC(C(=O)N1CCN(c2ccccn2)CC1)N1Cc2ccccc2C1=O (centres undefined)
657 s	COCC(C)(O)CNC(=O)c1cc(Cl)ccc1Cl (centres undefined)

RP-LC retention time	SMILES
691 s	O=C(CSc1ccc(N2CCCC(C(=O)NC3CC3)C2)nn1)Nc1ccc2c(c1)CCC2 (centres undefined)
807 s	O=S(=O)(Nc1cccnc1)c1ccc(Cl)c(-c2nnc(-c3ccccc3)o2)c1
932 s	CCCn1c(=O)sc2cc(S(=O)(=O)N3CCC(C(=O)NCc4ccccc4)CC3)ccc21
871 s	CCn1cnc(S(=O)(=O)N2CCCC(C(=O)Nc3cccc(C(F)(F)F)c3)C2)c1 (centres undefined)
835 s	CC1=C(c2ccccc2)S(=O)(=O)N=C1N1CCCN(C(=O)c2ccc(F)cc2F)CC1
930 s	CCC(C)NC(=O)C1CCCN(c2ncccc2-c2noc(C3CCC3)n2)C1 (centres undefined)
963 s	O=C(CSc1cc(N2CCN(c3ccccc3F)CC2)ncn1)NC1CCCC1
1040 s	CCC(CC)C(=O)Nc1nc(-c2ccccc2)c(-c2ccccc2)o1
938 s	COc1ccc(/C=C/c2cc3c(cc2OC)OCCO3)cc1O
636 s	CCN1CCN(C(=O)C2CCCN(S(=O)(=O)c3ccc(OC)c(C)c3)C2)CC1 (centres undefined)
781 s	Cc1ccc(C)c(-c2csc(NC(=O)CCC(=O)O)n2)c1
602 s	COCCNc1c(-c2cccc(C)c2)nc2sc(C(=O)NC3CC3)c(C)n12
641 s	COCCCN1CCC(NC(=O)c2cc(Cl)c(N)c3c2OCC3)CC1
977 s	Cc1cc(S(=O)(=O)N2CCC(N(C(=O)C3CC3)C3CCOCC3)CC2)ccc1Cl
783 s	CN(C)C(=O)c1csc(S(=O)(=O)N2CCC(C(=O)NC3CCCCCC3)CC2)c1
684 s	Nc1cc(C2CCN(C(=O)Cc3ccc(F)cc3)CC2)no1
1130 s	CCCCN1C(=O)c2cc(S(=O)(=O)Nc3ccccc3C)ccc2Oc2cccnc21
817 s	CCc1cccc(C)c1Nc1c(-c2ccc(N3CCOCC3)cc2)nc2cnccn12
777 s	CCCCNC(=O)c1sc(Nc2cccc(C)n2)nc1C
700 s	CCc1nnc(NC(=O)CN2C(=O)C3CCCCN3c3ccc(C(=O)N(C)C)cc32)s1 (centres undefined)
885 s	CCn1cc(C2=CCN(C(=O)Nc3ccc(OC)c(F)c3)CC2)c2cccnc21
950 s	Cc1cc2c(SCC(=O)N3CCCc4ccccc43)ncnc2s1
822 s	CCNC(=O)N1CCc2c([nH]c3ccc(Cl)cc23)C12C(=O)N(C)c1ccccc12 (centres undefined)

RP-LC retention time	SMILES
612 s	CN(CCc1ccncc1)C(=O)C1CCN(c2cnn(Cc3ccccc3)c(=O)c2)CC1
839 s	CCc1cccc(NC(=O)C2CCc3nc(N4CCOCC4)ncc3C2)c1 (centres undefined)
940 s	CCCn1ccc2sc(C)c(C(=O)NCc3cc(F)ccc3F)c2c1=O
596 s	Cn1nnnc1SCCNCc1ccc(Cl)cc1Cl
586 s	O=C1NC2CCCCC2NC1CC(=O)N1CCN(C(c2ccccc2)c2ccccc2)CC1 (centres undefined)
760 s	CCOc1ccc(CC(=O)Nc2cc(-c3cccnc3)no2)cc1
594 s	O=S(=O)(NCCN1CCN(c2ccccc2F)CC1)c1cc(F)ccc1F
775 s	O=C(CNS(=O)(=O)c1ccc2c(c1)OCCO2)N1CCOC(c2ccccc2)C1 (centres undefined)
665 s	CN(Cc1nc2cc(C(=O)N3CCCC3)ccc2n1C)C(=O)Nc1cccc(Br)c1
1020 s	COC(=O)c1cc(S(=O)(=O)N2CCCC2C(=O)Nc2cccc3c2CCCC3)cn1C (centres undefined)
900 s	Cc1cc(CNC(=O)C2(c3ccc(F)cc3)CC2)c(C)o1
756 s	CCCNC(=O)C1CCN(c2nc3ccsc3c(=O)n2-c2ccc(C)cc2)CC1
847 s	COCC1CN(C(=O)c2ccc(Br)o2)CCC1(F)F (centres undefined)
829 s	Cc1ccc(-c2cn3c(CC(=O)NC4CCCCC4)csc3n2)cc1C
615 s	COc1ccc(-c2ccc(N3CCN(C(=O)c4cnc5ccccc5n4)CC3)nn2)cc1
1070 s	COc1cc(-c2noc(-c3nc(-c4ccccc4)no3)n2)cc(OC)c1OC
872 s	CCC1CCCCN1C(=O)CC1CCN(S(=O)(=O)c2ccc3c(c2)oc(=O)n3C)CC1 (centres undefined)
1140 s	CC(C)(C)c1cc(C(=O)NCc2ccc(F)cc2)nc2ccnn12
1160 s	COc1cccc(-n2c(=O)c(C(=O)NCCc3cccs3)c(O)c3cccnc32)c1
973 s	CC(C)N1C(=O)C(C)(C(=O)Nc2ccccc2F)Oc2cccnc21 (centres undefined)
